The values that follow come from patent US20100105054A1, “GENE EXPRESSION IN DUCHENNE MUSCULAR DYSTROPHY” (CINCINNATI CHILDREN'S HOSPITAL MEDICAL CENTER, priority 2008, published 2010).

Entries after “also recorded” stand apart in the source; their conditions may differ. Read-outs that look alike come from different tables or passages of the source.

One series relates to individuals with DMD. Particulars: cited from earlier work; for muscle function and strength in individuals with DMD: humans with DMD.
Another series concerns myasthenia gravis. Particulars: compared to prednisone; cited from earlier work.
Series [1] has as its system gene expression in peripheral blood. As to the kind of experiment: Whole genome microarray of peripheral whole blood RNA, DMD administered deflazacort vs DMD administered prednisone. Format: in vivo, human. The procedure:
(§1) Of the 34 individuals with DMD, 14 were administered either prednisone (PRED, n=6) or deflazacort, an oxazoline derivative of prednisolone (DEFL, n=8) at the time blood samples for gene expression evaluation were obtained. The mean duration of administration of either prednisone or deflazacort for these 14 individuals was 43.9 months. Of the 34 individuals with DMD, 20 individuals had not been administered either prednisone or deflazacort at the time blood samples for gene expression evaluation were obtained.
(§2) Sample processing and array hybridization, probe-level data analysis, and statistical analysis were identical to Example 1.

The test system is the same in series [2]. Put plainly: Whole genome microarray of peripheral whole blood RNA, DMD administered prednisone or deflazacort vs DMD not administered steroid. Format: in vivo, human. Particulars: for KFL10 expression: individuals administered prednisone, deflazacort, or both vs DMD not administered any agent; for KFL10 expression / CD163 nucleic acid expression / FKBP5 expression / expression of genes in the chondroitin sulfate biosynthesis pathway / haptoglobin nucleic acid expression / lactotransferrin expression / lipocalin expression: blood; for CD163 nucleic acid expression / FKBP5 expression / expression of genes in the chondroitin sulfate biosynthesis pathway / haptoglobin nucleic acid expression / lactotransferrin expression / lipocalin expression: pooled deflazacort or prednisone group vs DMD not administered; for genes with significantly different expression: pooled group administered either prednisone or deflazacort vs DMD not administered, fold change >|1.5|, unpaired t-test, p<=0.05; for genes with down-regulated expression levels / genes with up-regulated expression levels: pooled prednisone or deflazacort group vs DMD not administered, of the 524 genes. The procedure:
Individuals with DMD were evaluated and had been diagnosed by a single board-certified pediatric neurologist. The diagnosis of DMD was based in part upon clinical history, examination findings, and selected muscle biopsies and was confirmed by molecular diagnostic testing.
as §1, §2

For series [3], the system named is dystrophin deficient Caenorhabditis elegans. Particulars: dystrophin deficient C. elegans; cited from earlier work.
The subject of another series is mdx mouse. The settings on record: cited from earlier work; for muscle strength: dystrophin deficient mdx mice.
The mark [4] stands for this setting: individuals with DMD administered prednisone, blood.
The mark [5] stands for this setting: deflazacort compared to prednisone, of the 508 genes.
Setting [6] is: DMD individuals receiving deflazacort.

Turning to `Cn1cnc([N+](=O)[O-])c1Sc1ncnc2nc[nH]c12` [azathioprine], in the series on individuals with DMD, the “muscle function and strength in individuals with DMD” value (“muscle function and strength” for short) is “does not improve DMD; also recorded: no improvement”. For the same molecule, the immunosuppressant effectiveness result with myasthenia gravis was “less effective immunosuppressant”.
For `C[C@]12C=CC(=O)C=C1CC[C@@H]1[C@@H]2C(=O)C[C@@]2(C)[C@H]1CC[C@]2(O)C(=O)CO` [prednisone], in series [1] (setting [4]), the “interleukin 1 beta expression” value is “up-regulated”, the “interleukin 1 receptor antagonist expression” value is “up-regulated” and the “interleukin 6 receptor expression” value was “up-regulated”. For the same molecule, in series [1] (prednisone compared to deflazacort, blood), the “expression of genes related to lipid metabolism, particularly in adipose tissue” value is “up-regulated”. Moreover, in the series on individuals with DMD, the “muscle function and strength” value is “improved muscle function and strength”. For the same molecule, in the series with individuals with DMD (listed as Prednisone), the “muscle function and strength” value is on record as “improve function”. Also, in series [2], the KFL10 expression result was “up-regulated”, the “CD163 nucleic acid expression” value is reported as “up-regulated expression levels”, the FKBP5 expression result was “up-regulated expression levels” and the “expression of genes in the chondroitin sulfate biosynthesis pathway” value is recorded as “up-regulated expression levels”. In series [2], the “haptoglobin nucleic acid expression” value was “up-regulated expression levels”, the lactotransferrin expression entry is “increased expression levels”, the lipocalin expression entry is recorded as “increased expression levels” and the “genes with significantly different expression” value was 524 genes. In addition, in series [2], the “genes with down-regulated expression levels” value was found to be 127 genes and the “genes with up-regulated expression levels” value turned out to be 397 genes. Moreover, the muscle degeneration entry in series [3] was “reduce muscle degeneration”. Also, in the series with mdx mouse, the muscle strength entry was “improve muscle strength” and the “CD-11 inflammatory cells in mdx muscle” value is “decrease”. Moreover, the “KFL10 expression in the mdx mouse” value in the series with mdx mouse (following six weeks of prednisone administration) is “up-regulated”.
`CC(=O)OCC(=O)[C@@]12N=C(C)O[C@@H]1C[C@H]1[C@@H]3CCC4=CC(=O)C=C[C@]4(C)[C@H]3[C@@H](O)C[C@@]12C` [deflazacort] came in with a genes significantly different in series [1] (DMD administered deflazacort compared to DMD administered prednisone, fold change >=|1.5|, unpaired t-test, p<=0.05, peripheral blood) of 508 genes. Moreover, the “changes in gene expression” value in series [1] (deflazacort compared to prednisone) is on record as “fewer changes in gene expression”. Moreover, the “expression of retinoic acid receptor a (RARa)” value in series [1] (deflazacort compared to prednisone, blood) is “significantly up-regulated”. Also, in series [1] (setting [5]), the genes significantly down-regulated is on record as 478 genes and the genes significantly up-regulated was 30 genes. In the series on individuals with DMD (setting [6]), the side effects entry is on record as “fewer side effects” and the weight gain entry is reported as “less weight gain”. In the series with individuals with DMD, the “muscle function and strength” value was “improved muscle function and strength”. Also, in series [2], the KFL10 expression entry is “up-regulated”, the “CD163 nucleic acid expression” value was “up-regulated expression levels”, the FKBP5 expression result is reported as “up-regulated expression levels” and the “expression of genes in the chondroitin sulfate biosynthesis pathway” value is “up-regulated expression levels”. In addition, in series [2], the “haptoglobin nucleic acid expression” value was “up-regulated expression levels”, the lactotransferrin expression result is “increased expression levels”, the lipocalin expression entry is recorded as “increased expression levels” and the “genes with significantly different expression” value stood at 524 genes. Further, in series [2], the “genes with down-regulated expression levels” value was 127 genes and the “genes with up-regulated expression levels” value came to 397 genes.
Take `C[C@]12C=CC(=O)C=C1CC[C@@H]1[C@@H]2[C@@H](O)C[C@@]2(C)[C@H]1CC[C@]2(O)C(=O)CO` [prednisolone]: in the series on individuals with DMD, the “muscle function and strength” value is “improve function”. For the same molecule, the muscle degeneration entry in series [3] was “reduce muscle degeneration”. For the same molecule, in the series with mdx mouse, the muscle strength result is “improve muscle strength” and the “CD-11 inflammatory cells in mdx muscle” value is listed as “decrease”.
